In US7767671B2, “3-Quinolinecarbonitrile protein kinase inhibitors” (Wyeth, priority 2004, dated 2010):

Target: T1, Raf and/or Mek kinase (human c-Raf, GST-MEK1) (Homo sapiens, UniProt P04049+Q02750)
T1 construct: Sf9 insect cell lysate containing full length 6his-tagged recombinant human c-Raf; 6His; host or cells: Sf9 insect cells (c-Raf, used as lysate); E. coli (MEK1-GST, GST-MAPK)
Assay: Raf/Mek kinase cascade assay
Format: biochemical
Conditions: c-Raf dependent activation of GST-MEK and GST-MAPK, phospho-MAPK ELISA; (a)/(b)/(c) = average of two/three/four runs
Summary of the method: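 Cascade run with c-Raf (0.4 U) activating non-active GST-MEK1 and GST-p42 MAPK in MOPS pH 7.2 buffer with ATP/MgCl2, 60 min at 30 °C. Phospho-MAPK captured on anti-GST plates and read with anti-phospho-MAPK and europium-conjugated secondary antibody. Single-point % inhibition at […]; IC50 over 10 µM–1 nM half-log dilutions.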

T1 sequence (P04049 whole entry): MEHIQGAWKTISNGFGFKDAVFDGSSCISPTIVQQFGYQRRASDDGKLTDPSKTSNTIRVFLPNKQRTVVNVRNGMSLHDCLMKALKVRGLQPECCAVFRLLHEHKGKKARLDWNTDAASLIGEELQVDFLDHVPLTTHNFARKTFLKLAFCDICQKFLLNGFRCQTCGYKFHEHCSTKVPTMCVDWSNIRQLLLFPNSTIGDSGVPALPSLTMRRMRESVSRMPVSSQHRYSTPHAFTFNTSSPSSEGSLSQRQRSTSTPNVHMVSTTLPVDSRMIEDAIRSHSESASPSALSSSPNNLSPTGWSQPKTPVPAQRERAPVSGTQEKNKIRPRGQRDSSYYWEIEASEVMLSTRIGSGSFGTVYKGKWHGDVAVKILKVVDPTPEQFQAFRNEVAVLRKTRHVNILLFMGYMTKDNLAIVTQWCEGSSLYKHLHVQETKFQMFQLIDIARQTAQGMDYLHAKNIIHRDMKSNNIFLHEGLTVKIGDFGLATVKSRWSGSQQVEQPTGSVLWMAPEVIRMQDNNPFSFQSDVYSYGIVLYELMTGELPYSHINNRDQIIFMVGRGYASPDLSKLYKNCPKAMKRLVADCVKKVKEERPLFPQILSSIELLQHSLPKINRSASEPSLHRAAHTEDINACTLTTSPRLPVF
T1 sequence (Q02750 whole entry): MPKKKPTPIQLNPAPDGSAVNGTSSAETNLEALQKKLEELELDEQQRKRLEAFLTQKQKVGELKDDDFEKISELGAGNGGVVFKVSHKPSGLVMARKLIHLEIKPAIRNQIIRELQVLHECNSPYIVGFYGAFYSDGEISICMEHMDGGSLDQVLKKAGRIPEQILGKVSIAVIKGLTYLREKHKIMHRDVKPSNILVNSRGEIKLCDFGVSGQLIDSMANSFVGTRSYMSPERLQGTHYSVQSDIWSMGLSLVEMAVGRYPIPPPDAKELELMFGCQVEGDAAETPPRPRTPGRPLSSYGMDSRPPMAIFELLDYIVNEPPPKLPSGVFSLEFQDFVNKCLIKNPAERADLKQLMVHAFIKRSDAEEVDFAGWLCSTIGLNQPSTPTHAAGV

COc1cc2c(Nc3ccc(Oc4ccccc4)cc3)c(C#N)cnc2cc1OCCN1CCC(N2CCCCC2)CC1 [Example 32, 7-(2-[1,4′]Bipiperidinyl-1′-yl-ethoxy)-6-methoxy-4-(4-phenoxy-phenylamino)-quinoline-3-carbonitrile]
IC50: 20 nM
